The results in this text go back to ChEMBL document CHEMBL4699540, “Discovery and structure activity relationships of 7-benzyl triazolopyridines as stable, selective, and reversible inhibitors of myeloperoxidase” (Bioorg Med Chem, 2020).

Data set [1] concerns the target T1, Myeloperoxidase (Mus musculus, UniProt P11247).
T1 sequence (P11247 whole entry): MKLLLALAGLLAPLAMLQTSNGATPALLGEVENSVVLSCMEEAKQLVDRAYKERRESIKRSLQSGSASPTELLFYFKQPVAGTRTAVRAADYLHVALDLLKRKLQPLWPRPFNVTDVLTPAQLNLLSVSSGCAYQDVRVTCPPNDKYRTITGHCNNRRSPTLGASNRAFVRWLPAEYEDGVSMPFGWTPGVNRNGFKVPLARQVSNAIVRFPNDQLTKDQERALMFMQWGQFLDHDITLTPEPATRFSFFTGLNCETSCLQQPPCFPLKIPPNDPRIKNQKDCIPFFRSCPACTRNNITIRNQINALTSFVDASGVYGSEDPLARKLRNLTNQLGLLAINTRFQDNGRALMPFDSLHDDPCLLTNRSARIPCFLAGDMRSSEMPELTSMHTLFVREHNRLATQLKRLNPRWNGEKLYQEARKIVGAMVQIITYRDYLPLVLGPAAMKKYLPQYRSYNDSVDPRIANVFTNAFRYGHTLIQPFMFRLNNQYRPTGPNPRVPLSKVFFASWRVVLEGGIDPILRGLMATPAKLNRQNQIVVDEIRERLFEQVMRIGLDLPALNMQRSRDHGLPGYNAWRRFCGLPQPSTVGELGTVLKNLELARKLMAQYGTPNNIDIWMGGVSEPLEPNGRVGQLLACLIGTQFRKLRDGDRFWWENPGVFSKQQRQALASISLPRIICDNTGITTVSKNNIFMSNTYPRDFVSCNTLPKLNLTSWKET
The experiment in a line: Inhibition of PMA-induced MPO in mouse Neutrophil incubated for 3 mins by luminometry. In kind it is tissue-based.

Data set [2] can be described thus: Metabolic stability in rat liver microsomes assessed as compound remaining. In kind it is ADME, Microsome. On the technique in general: Microsomes from liver hold many membrane-bound enzymes, among them those of drug oxidation.
For data set [3], the target named is Cytochrome P450 3A4 (Homo sapiens, UniProt P08684). The experiment in a line: Inhibition of CYP3A4 (unknown origin). The data set is classed as ADME.
Sequence of Cytochrome P450 3A4 (P08684 whole entry): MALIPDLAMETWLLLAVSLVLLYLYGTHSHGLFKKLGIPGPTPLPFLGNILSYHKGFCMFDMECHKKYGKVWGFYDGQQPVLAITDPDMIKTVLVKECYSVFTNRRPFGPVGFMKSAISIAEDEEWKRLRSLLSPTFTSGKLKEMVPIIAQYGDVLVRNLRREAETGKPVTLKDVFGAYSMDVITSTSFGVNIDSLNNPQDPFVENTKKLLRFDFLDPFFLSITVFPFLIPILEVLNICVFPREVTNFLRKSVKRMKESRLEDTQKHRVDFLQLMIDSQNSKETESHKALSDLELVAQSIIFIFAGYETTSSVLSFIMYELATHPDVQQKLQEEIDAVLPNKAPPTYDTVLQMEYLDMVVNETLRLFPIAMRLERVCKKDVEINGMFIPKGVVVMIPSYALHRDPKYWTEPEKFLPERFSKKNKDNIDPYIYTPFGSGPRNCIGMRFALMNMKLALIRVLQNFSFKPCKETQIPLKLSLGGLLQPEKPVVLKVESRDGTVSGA
For data set [4], the target named is T2, Cytochrome P450 2C8 (Homo sapiens, UniProt P10632).
T2 sequence (P10632 whole entry): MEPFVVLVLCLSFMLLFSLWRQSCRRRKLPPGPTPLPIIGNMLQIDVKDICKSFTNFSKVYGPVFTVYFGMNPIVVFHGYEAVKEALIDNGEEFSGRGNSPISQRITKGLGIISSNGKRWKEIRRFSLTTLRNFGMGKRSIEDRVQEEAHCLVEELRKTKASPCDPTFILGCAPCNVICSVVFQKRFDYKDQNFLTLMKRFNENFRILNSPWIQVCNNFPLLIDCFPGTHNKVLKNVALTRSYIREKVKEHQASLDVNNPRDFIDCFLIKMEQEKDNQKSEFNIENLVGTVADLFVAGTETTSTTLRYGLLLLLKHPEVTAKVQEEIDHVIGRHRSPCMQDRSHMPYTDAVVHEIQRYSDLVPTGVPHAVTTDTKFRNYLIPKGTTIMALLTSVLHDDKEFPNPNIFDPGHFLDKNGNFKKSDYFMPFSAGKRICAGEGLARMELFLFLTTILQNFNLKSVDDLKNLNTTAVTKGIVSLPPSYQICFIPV
Description: Inhibition of CYP2C8 (unknown origin). The data set is classed as ADME.

In data set [5] the test system is Neutrophil. To be noted: Homo sapiens, time 5.0 min.
Data set [6] in a line: Binding affinity to human neutrophil MPO delta (1-95) measured for 5 mins by SPR assay.
The target in data set [7] is T3, Myeloperoxidase (Homo sapiens, UniProt P05164).
T3 sequence (P05164 whole entry): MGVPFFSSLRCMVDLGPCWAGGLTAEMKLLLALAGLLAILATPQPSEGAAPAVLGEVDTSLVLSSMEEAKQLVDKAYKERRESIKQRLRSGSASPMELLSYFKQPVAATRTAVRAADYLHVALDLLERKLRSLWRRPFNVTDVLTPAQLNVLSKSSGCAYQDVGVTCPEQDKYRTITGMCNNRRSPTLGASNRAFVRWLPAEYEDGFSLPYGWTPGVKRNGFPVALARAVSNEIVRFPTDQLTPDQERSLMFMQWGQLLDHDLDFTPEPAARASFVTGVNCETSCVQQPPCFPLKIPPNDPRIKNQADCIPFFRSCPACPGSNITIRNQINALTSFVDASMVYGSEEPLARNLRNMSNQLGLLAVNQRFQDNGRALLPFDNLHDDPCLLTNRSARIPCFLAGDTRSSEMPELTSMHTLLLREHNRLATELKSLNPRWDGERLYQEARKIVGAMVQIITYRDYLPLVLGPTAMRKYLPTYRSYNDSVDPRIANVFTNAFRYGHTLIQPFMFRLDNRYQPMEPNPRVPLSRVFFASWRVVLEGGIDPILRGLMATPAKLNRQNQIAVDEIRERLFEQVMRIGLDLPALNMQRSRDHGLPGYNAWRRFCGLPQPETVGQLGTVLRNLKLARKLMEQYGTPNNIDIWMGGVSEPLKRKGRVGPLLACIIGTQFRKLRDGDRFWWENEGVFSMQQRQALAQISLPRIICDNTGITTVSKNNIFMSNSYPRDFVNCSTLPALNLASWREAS
The experiment in a line: Inhibition of recombinant human MPO incubated for 10 mins by amplex red dye based assay.

Data set [8] addresses T4, Cytochrome P450 1A2 (Homo sapiens, UniProt P05177).
T4 sequence (P05177 whole entry): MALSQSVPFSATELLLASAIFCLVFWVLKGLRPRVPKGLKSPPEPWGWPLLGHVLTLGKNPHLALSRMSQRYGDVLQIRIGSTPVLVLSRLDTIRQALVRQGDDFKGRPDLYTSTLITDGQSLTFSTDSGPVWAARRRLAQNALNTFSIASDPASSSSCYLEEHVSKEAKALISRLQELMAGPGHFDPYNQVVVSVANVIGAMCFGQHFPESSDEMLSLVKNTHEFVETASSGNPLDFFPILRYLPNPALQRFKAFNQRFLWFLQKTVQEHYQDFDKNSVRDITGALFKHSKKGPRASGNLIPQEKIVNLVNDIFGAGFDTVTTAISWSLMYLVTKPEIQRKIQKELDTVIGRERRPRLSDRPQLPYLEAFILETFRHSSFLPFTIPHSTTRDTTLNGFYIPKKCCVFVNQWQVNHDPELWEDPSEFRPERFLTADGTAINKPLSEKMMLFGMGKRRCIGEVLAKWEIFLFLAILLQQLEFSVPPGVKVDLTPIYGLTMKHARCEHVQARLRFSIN
The experiment in a line: Inhibition of CYP1A2 (unknown origin). In kind it is ADME.

A short description of data set [9]: Metabolic stability in mouse liver microsomes assessed as compound remaining. In kind it is ADME, Microsome.
Data set [10] concerns the target Cytochrome P450 2D6 (Homo sapiens, UniProt P10635). Description: Inhibition of CYP2D6 (unknown origin). The data set is classed as ADME.
Data set [11] can be described thus: Permeability of compound at pH 5.5 by PAMPA assay. The data set is classed as ADME. To be noted: read-out: permeability. On the technique in general: PAMPA measures passive passage across an artificial lipid membrane.
Data set [12] in a line: Dissociation constant, pKa of the compound. In kind it is physicochemical.
The target of data set [13] is T5, Methylated-DNA--protein-cysteine methyltransferase (Homo sapiens, UniProt P16455).
T5 sequence (P16455 whole entry): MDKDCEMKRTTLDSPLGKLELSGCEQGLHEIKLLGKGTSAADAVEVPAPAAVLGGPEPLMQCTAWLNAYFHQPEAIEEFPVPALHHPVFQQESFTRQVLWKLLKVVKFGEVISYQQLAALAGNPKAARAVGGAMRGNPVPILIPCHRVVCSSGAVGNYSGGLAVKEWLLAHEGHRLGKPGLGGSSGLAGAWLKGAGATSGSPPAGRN
Description: Inhibition of human MGMT using 06-benzylguanine as substrate incubated for 30 mins by LC/MS analysis. To be noted: 0.5 h.

The nature of data set [14]: Metabolic stability in human liver microsomes assessed as compound remaining. In kind it is ADME, Microsome.
Data set [15] can be described thus: Permeability of compound at pH 7.4 by PAMPA assay. The data set is classed as ADME. To be noted: read-out: permeability.
The target in data set [16] is T6, Cytochrome P450 2B6 (Homo sapiens, UniProt P20813).
T6 sequence (P20813 whole entry): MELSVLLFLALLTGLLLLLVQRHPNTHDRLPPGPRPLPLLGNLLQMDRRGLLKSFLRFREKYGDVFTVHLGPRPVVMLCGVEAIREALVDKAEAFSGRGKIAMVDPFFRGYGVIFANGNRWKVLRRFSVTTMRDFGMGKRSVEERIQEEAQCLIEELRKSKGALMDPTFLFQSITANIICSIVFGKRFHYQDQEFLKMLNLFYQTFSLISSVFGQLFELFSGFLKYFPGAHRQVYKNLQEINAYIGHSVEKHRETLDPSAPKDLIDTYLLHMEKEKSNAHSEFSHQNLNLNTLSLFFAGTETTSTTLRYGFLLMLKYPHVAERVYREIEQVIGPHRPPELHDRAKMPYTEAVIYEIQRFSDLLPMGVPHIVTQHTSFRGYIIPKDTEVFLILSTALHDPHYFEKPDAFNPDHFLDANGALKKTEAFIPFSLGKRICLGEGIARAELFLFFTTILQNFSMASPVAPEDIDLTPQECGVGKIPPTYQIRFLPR
The experiment in a line: Inhibition of CYP2B6 (unknown origin). In kind it is ADME.

A short description of data set [17]: Half life in CD-1 mouse at 3 mg/kg, po by LC/MS analysis. In kind it is ADME, organism-based. To be noted: in vivo.
Data set [18] in a line: AUCtot in CD-1 mouse at 3 mg/kg, po by LC/MS analysis. In kind it is ADME, organism-based. Set-up: time AUCmax, route oral, dose 3 mg/kg. To be noted: in vivo.

As usually defined, the IC50 is the point on the concentration scale where inhibition reaches its midpoint. For orientation: Kd means a measure of binding affinity in units of concentration. A lower Kd goes with higher affinity. Usually pKa stands for the pH at which an ionisable group is half protonated. One may read the half-life as how long it takes for the measured level to halve. Broadly, the AUC is the area under the concentration-time curve, a measure of exposure.

Sequence of Cytochrome P450 2D6 (P10635 whole entry): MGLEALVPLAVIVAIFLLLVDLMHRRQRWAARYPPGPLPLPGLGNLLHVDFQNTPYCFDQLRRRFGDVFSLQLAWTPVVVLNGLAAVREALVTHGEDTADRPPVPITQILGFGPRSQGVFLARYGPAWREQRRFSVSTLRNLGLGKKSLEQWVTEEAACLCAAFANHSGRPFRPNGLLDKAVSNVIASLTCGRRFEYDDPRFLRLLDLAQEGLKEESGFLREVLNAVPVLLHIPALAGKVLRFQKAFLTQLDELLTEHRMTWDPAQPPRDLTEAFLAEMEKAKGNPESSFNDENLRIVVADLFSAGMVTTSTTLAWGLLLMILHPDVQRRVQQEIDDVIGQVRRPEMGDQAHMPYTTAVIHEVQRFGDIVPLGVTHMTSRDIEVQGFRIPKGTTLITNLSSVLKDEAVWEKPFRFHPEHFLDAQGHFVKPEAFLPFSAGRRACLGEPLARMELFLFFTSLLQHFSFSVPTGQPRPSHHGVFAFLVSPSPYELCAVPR

In the case of `O=c1[nH]c(=S)n(C[C@H]2CCCO2)c2nc[nH]c12`, inhibition in data set [1] was half-maximal at 32.5 µM (IC50).
With `Nc1nc(OCc2ccccc2)c2[nH]nnc2n1`, the figures for the Stabilty in data set [2], in data set [9] and in [14] were 95%, 80% and 93%, respectively. In addition, the IC50 in data set [3] was over 10 µM; in data set [4] it was over 10 µM; in [7] it was 0.103 µM; in data set [8], over 10 µM; in [10], over 10 µM; in data set [16], over 10 µM. The Ka in [5] is 1.3 10^3/M.s. Also, in data set [5], the Kdiss was 0.72 10^-3/s. Also, binding in data set [6] was characterised by a dissociation constant (Kd) of 0.547 µM. For the same compound, the Papp in data set [11] was 42 ×10⁻⁶ cm/s; in data set [15] it was 16.7 ×10⁻⁶ cm/s. Further, the pKa in [12] amounted to 6.6. In data set [13], the “inhibition (INH)” value is “Active”. This compound gave a half-life in data set [17] of 2.4 h. Further, the AUC in [18] was 22.2 µM·h.
